Patent publication US11648248B1 (King Abdulaziz University, priority 2022, dated 2023)

Assays:
[1] = tested on: Gram-positive bacteria; assay: Bacteriostatic or bactericidal by MBC versus MIC; type: cell-based; conditions: MBC less than or at least three-fold the MIC
Excerpt: Based upon the initial results obtained, the active compounds were further screened against additional clinical isolates of methicillin-sensitive S. aureus (MSSA), methicillin-resistant S. aureus (MRSA), vancomycin-resistant S. aureus (VRSA), Staphylococcus epidermidis, vancomycin-resistant Enterococcus faecium (VRE), vancomycin-resistant Enterococcus faecalis (VRE) and Streptococcus pneumoniae, as presented in Table 2. Additionally, we examined whether the compounds were bacteriostatic (inhibit bacteria from growing) or bactericidal (kill bacteria) by determining the minimum bactericidal concentration (MBC). The MBC was determined by plating 5 μL from each well where no growth was present (in the MIC plates) onto tryptic soya agar plates and incubating plates at 37° C. for 24 hours. The MBC was categorized as the lowest concentration that generated a 99.9% reduction in bacterial colony-forming units (Table 3).

[2] = tested on: Gram-positive strains; assay: Relative MIC compared to reference drugs (FIG. 3); type: cell-based
Excerpt: FIG. 3. Relative MIC of MY31 compared to reference drugs.
For instance, it stopped the growth of VRSA strains with more potency than sorafenib (the prototype) and, as expected, much higher than vancomycin. […] Material and Methods

## O=C(Nc1ccc(-c2ccc(=O)[nH]n2)cc1)Nc1ccc(Cl)c(Cl)c1 [MY21, 1-(3,4-dichlorophenyl)-3-(4-(6-oxo-1,6-dihydropyridazin-3-yl)phenyl)urea]
[1]
  bacteriostatic or bactericidal (MBC compared with MIC): bactericidal

## O=C(Nc1ccc(Oc2ccc(=O)[nH]n2)cc1)Nc1ccc(Cl)c(Cl)c1 [MY24, 1-(3,4-dichlorophenyl)-3-(4-((6-oxo-1,6-dihydropyridazin-3-yl)oxy)phenyl)urea]
[1]
  bacteriostatic or bactericidal (MBC compared with MIC): bacteriostatic

## O=C(Nc1ccc(Oc2ccc(=O)[nH]n2)cc1)Nc1ccc(Cl)c(C(F)(F)F)c1 [MY31, 1-(4-chloro-3-(trifluoromethyl)phenyl)-3-(4-((6-oxo-1,6-dihydropyridazin-3-yl)oxy)phenyl)urea]
[2]
  bacteriostatic activity relative to tested compounds and positive control antibiotics: highest bacteriostatic activity among the tested compounds
[1]
  bacteriostatic or bactericidal (MBC compared with MIC): bacteriostatic
